{"source": "patent US20250064774A1", "about": "“FORMULATIONS AND METHODS OF MAKING AND USING THE SAME” (AraVai Global LLC, priority 2021, published 2025)", "tested_on": "skin of the intrascapular regions of the back", "assay": "Repeat insult patch test under occlusive conditions (induction and challenge)", "settings": "positive control", "text": "The raw material ingredients to be tested under occlusive conditions were placed on an 8-millimeter aluminum Finn Chamber® (Epitest Ltd. Oy, Tuusula, Finland) supported on Scanpor® Tape (Norgesplaster A/S, Kristiansand, Norway) or an 8-millimeter filter paper coated aluminum Finn Chamber® AQUA supported on a thin flexible transparent polyurethane rectangular film coated on one side with a medical grade acrylic adhesive, consistent with adhesive used in state-of-the-art hypoallergenic surgical tape or a 7 mm IQ-ULTRA® closed cell system which is made of additive-free polyethylene plastic foam with a filter paper incorporated. It is supplied in units of 10 chambers on a hypoallergenic non-woven adhesive tape; the width of the tape is 52 mm and the length is 118 mm or other equivalents. […]\nApproximately 0.02-0.05 mL for liquid materials and/or 0.02-0.05 g for solid materials of the test material was used for the study. […] Prior to each reapplication, the test sites evaluated by trained laboratory personnel. […] Test sites were evaluated by trained laboratory personnel 48 and 96 hours after application. In the event of an adverse reaction, the area of erythema and edema were measured. […] Subjects were instructed to report any delayed reactions that might occur after the final reading. […]", "data": [{"smiles": "CCCCCCCCCCCCOS(=O)(=O)[O-].[Na+]", "note": "[2.0% Sodium Lauryl Sulfate Solution, Sodium Lauryl Sulfate]", "values": [{"measurement": "subjects with a Grade 1 reaction", "value": "ten"}, {"measurement": "subjects with a Grade 4 reaction", "value": "one"}]}]}
